Like-named read-outs stand apart in the source and are kept apart here.
How the values were obtained:
[1] = single oral administration with bulk gallium chloride (100 nmol), after five days; cited from earlier work
[2] = target: T1, human apo-transferrin (apo-Tf) (Homo sapiens, UniProt P02787); assay: Binding to apo-transferrin by size exclusion chromatography (PD MidiTrap G-25); assay type: in vitro ADME; details: incubated with apo-Tf in the presence of bicarbonate, sampled over 48 h
T1 construct: purchased Sigma Aldrich
Protocol: Solutions of human apo-transferrin (apo-Tf, 2 mg/mL) and human serum albumin (HSA, 50 mg/mL) (both purchased from Sigma Aldrich) were dissolved in aqueous NaHCO3 (5 mM, pH = 8) and PBS (pH = 7.4), respectively. An amount of 1 MBq of tracer-level [^68Ga]KP46 (13–20 µL) or [^68Ga]gallium acetate (20–25 µL) was added to 1.2 mL of the apo-Tf solution and to a similar apo-Tf-free NaHCO3 solution (control). Similarly, [^68Ga]KP46 and [^68Ga]gallium acetate solutions were added to 1.5 mL PBS containing HSA or HSA-free PBS (control). The samples were incubated for 60 min at 37 °C (pH = 7–7.5). From each mixture, 0.5 mL was loaded into PD MidiTrap G-25 size exclusion chromatography cartridges that were preconditioned with 8 mL of NaHCO3 (5 mM) (for apo-Tf binding) or PBS (for HSA binding). Fractions (0.5 mL) were collected and counted with a Wallac gamma counter. Protein absorbance at 280 nm was measured using a Nanodrop spectrophotometer. To investigate the speciation of the Ga–KP46 complex in the presence of apo-Tf at later time points (up to 48 h), the experiment was repeated with ^67Ga.

[3] = SPECT imaging and ex vivo biodistribution 24 h and 48 h after oral [67Ga]KP46, tracer (group E) and bulk (group F); assay type: in vivo, mice; details: n = 4
Protocol: The tracer-level samples for oral administration were prepared in the same manner but with 20 μL of KP46-free DMSO in place of the KP46 solution in DMSO.
All animal experiments were performed in accordance with the Animals (Scientific Procedures) Act, 1986, with protocols approved by the Animal Welfare and Ethical Review Body for King’s College London under project and personal licences approved by the UK Home Office. Tumour xenograft studies were performed on female NSG mice or female athymic nude mice after injecting them subcutaneously in the right shoulder with 2.5 × 10^6 A375 cells in 100 µL of PBS. All in vivo studies were conducted between 14 and 24 days after inoculation, with tumour volumes between 100 mm^3 and 580 mm^3 (see Supplementary Materials, Figure S11).
For long-term (up to 48 h) studies, a similar protocol was followed, but SPECT imaging using ^67Ga was repeated at intervals up to 48 h instead of PET imaging up to only 4 h postadministration. Athymic nude nu/nu mice bearing A375 xenografts were fasted for 7–14 h and divided in two groups: E (n = 4) and F (n = 4). Awake (nonanaesthetised) mice were orally administered with [^67Ga]KP46 (2–11 MBq, “tracer”, group E) or with [^67Ga]KP46 and KP46 (1–11 MBq, “bulk”, group F, given 0.4 μmol KP46 with molar activity ca. 15 MBq/μmol) and fasted for three hours. Mice in both groups were then anaesthetised and SPECT/CT scanned (see scanning protocol below) for one hour. Mice were then allowed to recover and feed. At 24 h postadministration, mice were reanaesthetised and rescanned, then group E mice were culled while still anaesthetised, and tissues were harvested for ex vivo gamma counting.
PET/CT images were acquired with a nanoScan® PET/CT (Mediso Medical Imaging Systems, Budapest, Hungary) scanner operating in list mode using a 400–600 keV energy window and a coincidence window of 1:3. CT scans were acquired for anatomical reference and attenuation correction (55 keV X-ray, exposure time 1000 ms, and 360 projections and pitch 1). PET projection data were reconstructed using the Tera-tomo® software package provided with the scanner —a Monte Carlo-based fully 3D iterative algorithm with four iterations, six subsets, and 0.4 mm isotropic voxel size; corrections for attenuation, scatter, and dead-time were enabled. The data were then visualised and quantified using VivoQuant^© v.2.50 (InviCro, Boston, MA, USA) software. SPECT/CT imaging was performed on a NanoSPECT/CT Silver Upgrade scanner (Mediso; 4 heads, 4 × 9 1.0 mm multipinhole collimators) in helical scanning mode using energy windows centred around 93.20 ± 20% keV (primary), 184.60 ± 20% keV (secondary), and 300.00 ± 20% keV (tertiary). […] Images were coregistered and analysed using VivoQuant v2.50 (InviCro, Needham, MA, USA).

[4] = Octanol extraction of serum, urine and gut contents after oral radiolabelled KP46 (speciation); assay type: in vivo, mice; details: oral, tracer level (group E), 24 h
Protocol: Serum and urine from the “tracer level” group (E) were subjected to octanol extraction 24 h postadministration to determine the fraction of ^67Ga that may have survived in the form of [^67Ga]KP46 after absorption from the gut.
Oral [^68/67Ga]KP46: The protocol for oral administration experiments reported here was devised on the basis of pilot experiments described in Supplementary Materials (Figure S12). For short-term (up to 4 h) studies with ^68Ga, awake (nonanaesthetised, to avoid suppressive effects of anaesthesia on digestive tract activity) mice that had been fasted for up to 14 h were given [^68Ga]KP46 (5–13 MBq) (group C, “tracer”, n = 3) or [^68Ga]KP46 and KP46 (5–8.5 MBq) (group D, “bulk”, n = 3) by oral gavage. The dose given orally to group D animals, prepared as described above, was 0.4 μmol in 400 μL, molar activity ca. 25 MBq/μmol. The mice were fasted for three hours before being anaesthetised and PET/CT scanned dynamically for one hour (see below for scanning protocol). After scanning, mice in both groups were culled by neck dislocation while still anaesthetised four hours post-oral administration for organ harvesting and gamma counting. Samples of blood, urine and contents of stomach, small intestine and large intestine (the organs/tissue with measurable activity; tumours were not included as they were insufficiently radioactive) from the mice in group C were used for octanol extraction (shake-flask method) to separate water-soluble (released) and lipid-soluble (intact KP46) ^68Ga. Serum samples were prepared by placing blood samples in a serum separator tube (brand VS367954, Fisher Scientific Ltd., Loughborough, UK) and centrifuging at 3000 rpm for 10 min. Serum (200–300 µL) and urine samples (150–180 µL, taken from the excised bladders) were directly added to Eppendorf tubes containing a pre-equilibrated mixture of octanol (500 µL) and water (500 µL). The tubes were vortexed for two minutes on a Multi Vortex Mixer V-32 (Grant Bio). After separation of layers, a sample of 400 µL from each layer was transferred to fresh Eppendorf tubes and analysed with a gamma counter. Stomach content (72–77 mg), small intestine content (35–88 mg), and large intestine content (86–100 mg) samples from each mouse were analysed similarly by adding them directly to Eppendorf tubes containing a pre-equilibrated mixture of octanol (500 µL) and water (500 µL) before vortexing and centrifuging at 10,000 rpm for 10 min at 4 °C. From each layer, 430 µL was transferred to fresh Eppendorf tubes and analysed with a gamma counter; the solid residues were also counted. Tissues from mice in group D were used after radioactive decay for measurements of nonradioactive ^69Ga content.

[5] = Distribution/partition coefficients (logD, logP), shake flask with gamma counting; assay type: physicochemical; details: octanol/water, tracer level, mean ± SD
Protocol: Tracer-level [^68Ga]KP46 and [^68Ga]Ga-acetate solutions (5–20 µL, 0.3–0.5 MBq) were added to a pre-equilibrated mixture (500 µL/500 µL) of octanol/water (for logP measurement) or octanol/PBS (for logD7.4 measurement). Samples were vortexed for two minutes in a Multi Vortex Mixer V-32 (Grant Bio). From each layer, a sample of 200 µL was taken and its radioactivity measured using a gamma counter.

[6] = set-up: method as in PMID 8687115; details: healthy mice, 2 weeks daily oral doses; cited from earlier work
[7] = ICP-MS analysis of 69Ga in tissues after oral bulk dose; assay type: in vivo, mice; details: bulk (group D), 4 h
Protocol: Oral [^68/67Ga]KP46: The protocol for oral administration experiments reported here was devised on the basis of pilot experiments described in Supplementary Materials (Figure S12). For short-term (up to 4 h) studies with ^68Ga, awake (nonanaesthetised, to avoid suppressive effects of anaesthesia on digestive tract activity) mice that had been fasted for up to 14 h were given [^68Ga]KP46 (5–13 MBq) (group C, “tracer”, n = 3) or [^68Ga]KP46 and KP46 (5–8.5 MBq) (group D, “bulk”, n = 3) by oral gavage. The dose given orally to group D animals, prepared as described above, was 0.4 μmol in 400 μL, molar activity ca. 25 MBq/μmol. […] After separation of layers, a sample of 400 µL from each layer was transferred to fresh Eppendorf tubes and analysed with a gamma counter. Stomach content (72–77 mg), small intestine content (35–88 mg), and large intestine content (86–100 mg) samples from each mouse were analysed similarly by adding them directly to Eppendorf tubes containing a pre-equilibrated mixture of octanol (500 µL) and water (500 µL) before vortexing and centrifuging at 10,000 rpm for 10 min at 4 °C. From each layer, 430 µL was transferred to fresh Eppendorf tubes and analysed with a gamma counter; the solid residues were also counted. […]
expressed as mean ± SD (n = 3). […]

[8] = set-up: method as in PMID 16938349, PMID 21305117; details: bulk drug, spectrophotometric; cited from earlier work

T1 sequence (P02787 20-698): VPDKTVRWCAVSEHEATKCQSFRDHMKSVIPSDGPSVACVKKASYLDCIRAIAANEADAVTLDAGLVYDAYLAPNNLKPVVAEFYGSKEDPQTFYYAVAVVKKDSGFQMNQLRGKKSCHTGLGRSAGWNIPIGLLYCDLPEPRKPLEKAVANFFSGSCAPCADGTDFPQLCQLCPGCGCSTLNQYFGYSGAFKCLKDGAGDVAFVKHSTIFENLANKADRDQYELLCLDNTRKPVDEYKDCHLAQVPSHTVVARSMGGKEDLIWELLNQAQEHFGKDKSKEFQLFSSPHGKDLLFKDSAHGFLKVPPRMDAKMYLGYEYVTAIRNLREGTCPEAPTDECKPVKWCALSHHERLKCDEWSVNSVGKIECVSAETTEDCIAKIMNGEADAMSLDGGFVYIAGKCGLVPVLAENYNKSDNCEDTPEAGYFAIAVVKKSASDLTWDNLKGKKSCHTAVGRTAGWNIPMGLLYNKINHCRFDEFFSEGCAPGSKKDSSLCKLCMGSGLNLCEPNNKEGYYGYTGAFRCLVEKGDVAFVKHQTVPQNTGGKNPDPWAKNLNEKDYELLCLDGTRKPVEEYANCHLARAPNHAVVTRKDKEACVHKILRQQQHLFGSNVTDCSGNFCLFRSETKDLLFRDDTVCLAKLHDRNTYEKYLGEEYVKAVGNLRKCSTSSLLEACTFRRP

## O=C([O-])CC(O)(CC(=O)[O-])C(=O)[O-].[67Ga+3] [[^67Ga]gallium citrate]
[1]
  original measured activity remaining in the mice: 0.3 ± 0.08%

## [67Ga+3].[O-]c1cccc2cccnc12.[O-]c1cccc2cccnc12.[O-]c1cccc2cccnc12 [[^67Ga]KP46]
[2]
  binding of 67Ga to apo-Tf: very minor binding
[3]; bulk level (group F), 48 h
  uptake in bone, ex vivo: 2.55 ± 1.82 %ID/g
  uptake in liver, ex vivo: 1.34 ± 1.01 %ID/g
  uptake in tumour, ex vivo: 1.57 ± 0.48 %ID/g
[3]; tracer level (group E), 24 h
  activity in faeces, ex vivo: 3.0 ± 2.9 %ID/g
[4]
  serum radioactivity extracted into octanol phase: Less than 6%
  urine activity extracted into octanol phase: less than 3%

## [Ga+3].[O-]c1cccc2cccnc12.[O-]c1cccc2cccnc12.[O-]c1cccc2cccnc12 [KP46, tris(8-quinolinolato)gallium (III)]
[5]
  logP(octanol/water): 2.33 ± 0.28
[6]
  accumulation of gallium in liver: 0.08 ± 0.04 %ID/g
[7]
  69Ga delivered to tumour by ICP-MS: 0.17 ± 0.1 %ID/g
  69Ga in large intestine by ICP-MS: 23.7 ± 9.2 %ID/g
[8]
  logP(octanol/water): 0.88
